A word on the IC50: it is the concentration that gives 50% inhibition.

The target in the first assay is SMYD3 (Homo sapiens (Human), UniProt Q9H7B4). Kind of assay: SMYD3 biochemical assay (SPA, 3H-SAM methylation of MEKK2 protein substrate). The conditions noted are these: Table 1A; IC50 values are an average of n = 1 to n = 50; read-out: SMYD3 Biochem IC50. The method, boiled down:
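Methylation of N-terminally GST-tagged MEKK2 by untagged full-length human SMYD3, using 3H-SAM, in pH 8.0 Tris buffer with TCEP, BSG and Tween 20; enzyme and compound sat 30 min at room temperature before substrate addition. Stopped with 100 uM (final) cold SAM; incorporation read by scintillation proximity as dpm/cpm.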
Regarding `O=C(N[C@H]1C[C@H]2CC[C@@H](C1)N2S(=O)(=O)c1cc2oc(=O)[nH]c2cc1Cl)c1cc(C2CC2)on1` [compound 492, N-((1R,3r,5S)-8-((5-chloro-2-oxo-2,3-dihydrobenzo[d]oxazol-6-yl)sulfonyl)-8-azabicyclo[3.2.1]octan-3-yl)-5-cyclopropylisoxazole-3-carboxamide], the half-maximal inhibitory concentration (IC50) is above 10 µM.
As for `C[C@@H]1C[C@@H](NC(=O)c2cc(C3CC3)on2)CCN1S(=O)(=O)c1ccc(N(C)CCN)nc1` [compound 508, N-((2R,4S)-1-((6-((2-aminoethyl)(methyl)amino)pyridin-3-yl)sulfonyl)-2-methylpiperidin-4-yl)-5-cyclopropylisoxazole-3-carboxamide], the IC50 was 0.32 µM.
On the same count and under the same terms, with `C[C@H]1C[C@@H](NC(=O)c2cc(C3CC3)on2)CCN1S(=O)(=O)c1ccc(NCCN)nc1` [compound 509, N-((2S,4S)-1-((6-((2-aminoethyl)amino)pyridin-3-yl)sulfonyl)-2-methylpiperidin-4-yl)-5-cyclopropylisoxazole-3-carboxamide] the figure was 0.00592 µM.
In the case of `CC(C)CN(C)c1cc(S(=O)(=O)N2CC[C@H](NC(=O)c3cc(C4CC4)on3)C[C@@H]2C)ccn1` [compound 510, 5-cyclopropyl-N-((2S,4S)-1-((2-(isobutyl(methyl)amino)pyridin-4-yl)sulfonyl)-2-methylpiperidin-4-yl)isoxazole-3-carboxamide], the half-inhibitory concentration (IC50) was above 10 µM.
In the case of `CC(C)CN(C)c1cc(S(=O)(=O)N2CC[C@@H](NC(=O)c3cc(C4CC4)on3)C[C@@H]2C)ccn1` [compound 511, 5-cyclopropyl-N-((2S,4R)-1-((2-(isobutyl(methyl)amino)pyridin-4-yl)sulfonyl)-2-methylpiperidin-4-yl)isoxazole-3-carboxamide], the half-inhibitory concentration (IC50) was above 10 µM.
Same read-out and setting: in the case of `C[C@@H]1C[C@@H](NC(=O)c2cc(C3CC3)on2)CCN1S(=O)(=O)c1ccnc(N(C)CCN)c1` [compound 512, N-((2R,4S)-1-((2-((2-aminoethyl)(methyl)amino)pyridin-4-yl)sulfonyl)-2-methylpiperidin-4-yl)-5-cyclopropylisoxazole-3-carboxamide] it was 0.487 µM.
With `C[C@H]1C[C@@H](NC(=O)c2cc(C3CC3)on2)CCN1S(=O)(=O)c1ccc(C#N)nc1` [compound 513, N-((2S,4S)-1-((6-cyanopyridin-3-yl)sulfonyl)-2-methylpiperidin-4-yl)-5-cyclopropylisoxazole-3-carboxamide], the concentration for half-maximal inhibition (IC50) was found to be 1.09 µM.

The assay is the same for the next values; noted with them: read-out: SMYD3 Biochem IC50.
For `CC(C)CN(C)c1ccc(S(=O)(=O)N2C3CCCC2CC(NC(=O)c2cc(C4CC4)on2)C3)cn1` (centres unmarked) [compound 514, 5-cyclopropyl-N-(9-((6-(isobutyl(methyl)amino)pyridin-3-yl)sulfonyl)-9-azabicyclo[3.3.1]nonan-3-yl)isoxazole-3-carboxamide], the 50% inhibitory concentration (IC50) was above 10 µM.
`NCCNc1ccc(S(=O)(=O)N2C3CCCC2CC(NC(=O)c2cc(C4CC4)on2)C3)cn1` (centres unmarked) [compound 515, N-(9-((6-((2-aminoethyl)amino)pyridin-3-yl)sulfonyl)-9-azabicyclo[3.3.1]nonan-3-yl)-5-cyclopropylisoxazole-3-carboxamide]: the IC50 worked out at 0.0176 µM.

The same assay, now with this note: read-out: SMYD3 Biochem IC50 (μM)*.
For the compound `C[C@@H]1C[C@@H](NC(=O)c2cc(C3CC3)on2)CCN1C(=O)c1ccc2[nH]cnc2c1` [compound 425, N-((2R,4S)-1-(1H-benzo[d]imidazole-5-carbonyl)-2-methylpiperidin-4-yl)-5-cyclopropylisoxazole-3-carboxamide], the IC50 is above 10 µM.
Same read-out and setting: with `C[C@H]1C[C@H](NC(=O)c2cc(C3CC3)on2)CCN1C(=O)c1ccc2[nH]cnc2c1` [compound 426, N-((2S,4R)-1-(1H-benzo[d]imidazole-5-carbonyl)-2-methylpiperidin-4-yl)-5-cyclopropylisoxazole-3-carboxamide] the figure was above 10 µM.
For `N[C@H]1CC[C@@H](C(=O)N2[C@@H]3CC[C@H]2C[C@@H](NC(=O)c2cc(C4CC4)on2)C3)CC1` [compound 429, N-((1R,3R,5S)-8-((1s,4S)-4-aminocyclohexane-1-carbonyl)-8-azabicyclo[3.2.1]octan-3-yl)-5-cyclopropylisoxazole-3-carboxamide], the 50% inhibitory concentration (IC50) came to 0.351 µM.
As to `NCCCS(=O)(=O)N1CCC(NC(=O)c2cc(C3CC3)on2)CC12CCC2` (centres unmarked) [compound 445, N-(5-((3-aminopropyl)sulfonyl)-5-azaspiro[3.5]nonan-8-yl)-5-cyclopropylisoxazole-3-carboxamide], the concentration for half-maximal inhibition (IC50) amounted to 0.13 µM.
On the same count and under the same terms, in the case of `CNc1ccc(S(=O)(=O)N2CC[C@H](NC(=O)c3cc(C4CC4)on3)C[C@H]2C)cn1` [compound 447, 5-cyclopropyl-N-((2R,4S)-2-methyl-1-((6-(methylamino)pyridin-3-yl)sulfonyl)piperidin-4-yl)isoxazole-3-carboxamide] it was above 10 µM; in that of `CNc1ccc(S(=O)(=O)N2CC[C@@H](NC(=O)c3cc(C4CC4)on3)C[C@@H]2C)cn1` [compound 448, 5-cyclopropyl-N-((2S,4R)-2-methyl-1-((6-(methylamino)pyridin-3-yl)sulfonyl)piperidin-4-yl)isoxazole-3-carboxamide], above 10 µM; in that of `CC(C)CNc1ccc(S(=O)(=O)N2CC[C@H](NC(=O)c3cc(C4CC4)on3)C[C@H]2C)cn1` [compound 451, 5-cyclopropyl-N-((2R,4S)-1-((6-(isobutylamino)pyridin-3-yl)sulfonyl)-2-methylpiperidin-4-yl)isoxazole-3-carboxamide], above 10 µM.
On the same count and under the same terms, with `CC(C)CNc1ccc(S(=O)(=O)N2CC[C@@H](NC(=O)c3cc(C4CC4)on3)C[C@@H]2C)cn1` [compound 452, 5-cyclopropyl-N-((2S,4R)-1-((6-(isobutylamino)pyridin-3-yl)sulfonyl)-2-methylpiperidin-4-yl)isoxazole-3-carboxamide] the figure was above 10 µM; with `COCCNc1ccc(S(=O)(=O)N2CC[C@H](NC(=O)c3cc(C4CC4)on3)C[C@H]2C)cn1` [compound 456, 5-cyclopropyl-N-((2R,4S)-1-((6-((2-methoxyethyl)amino)pyridin-3-yl)sulfonyl)-2-methylpiperidin-4-yl)isoxazole-3-carboxamide], above 10 µM.
`C[C@H]1C[C@H](NC(=O)c2cc(C3CC3)on2)CCN1S(=O)(=O)c1ccc(N(C)CCN)nc1` [compound 462, N-((2S,4R)-1-((6-((2-aminoethyl)(methyl)amino)pyridin-3-yl)sulfonyl)-2-methylpiperidin-4-yl)-5-cyclopropylisoxazole-3-carboxamide]: the IC50 amounted to 0.305 µM.
As to `C[C@H]1C[C@@H](NC(=O)c2cc(C3CC3)on2)CCN1S(=O)(=O)c1ccc(Cl)cn1` [compound 466, N-((2S,4S)-1-((5-chloropyridin-2-yl)sulfonyl)-2-methylpiperidin-4-yl)-5-cyclopropylisoxazole-3-carboxamide], the IC50 stood at 0.121 µM.
Same read-out and setting: with `COC(=O)C1CN(C(=O)[C@H]2CC[C@H](N)CC2)CC(C)C1NC(=O)c1cc(C2CC2)on1` (some centres unmarked) [compound 468, methyl 1-((1r,4r)-4-aminocyclohexane-1-carbonyl)-4-(5-cyclopropylisoxazole-3-carboxamido)-5-methylpiperidine-3-carboxylate] the figure was 1.22 µM; with `N[C@H]1CC[C@H](C(=O)N2CCC(NC(=O)c3cc(C4CC4)on3)C(c3ccccc3)C2)CC1` (some centres unmarked) [compound 469, N-(1-((1r,4r)-4-aminocyclohexane-1-carbonyl)-3-phenylpiperidin-4-yl)-5-cyclopropylisoxazole-3-carboxamide], 6.28 µM.
In the case of `NCCCS(=O)(=O)N1CCC(NC(=O)c2cc(C3CC3)on2)C(c2ccccc2)C1` (centres unmarked) [compound 470, N-(1-((3-aminopropyl)sulfonyl)-3-phenylpiperidin-4-yl)-5-cyclopropylisoxazole-3-carboxamide], the IC50 was determined as 2.76 µM.
For `COC(=O)C1CN(C(=O)CCCN)CC(C)C1NC(=O)c1cc(C2CC2)on1` (centres unmarked) [compound 471, methyl 1-(4-aminobutanoyl)-4-(5-cyclopropylisoxazole-3-carboxamido)-5-methylpiperidine-3-carboxylate], the IC50 came to 5.76 µM.
On the same count and under the same terms, with `CC(C)CN(C)c1ncccc1S(=O)(=O)N1C2CCCC1CC(NC(=O)c1cc(C3CC3)on1)C2` (centres unmarked) [compound 472, 5-cyclopropyl-N-(9-((2-(isobutyl(methyl)amino)pyridin-3-yl)sulfonyl)-9-azabicyclo[3.3.1]nonan-3-yl)isoxazole-3-carboxamide] the figure was above 10 µM; with `CC(C)CNc1ncccc1S(=O)(=O)N1C2CCCC1CC(NC(=O)c1cc(C3CC3)on1)C2` (centres unmarked) [compound 473, 5-cyclopropyl-N-(9-((2-(isobutylamino)pyridin-3-yl)sulfonyl)-9-azabicyclo[3.3.1]nonan-3-yl)isoxazole-3-carboxamide], 5.97 µM; with `CC(C)CNc1ncccc1S(=O)(=O)N1CC[C@H](NC(=O)c2cc(C3CC3)on2)C[C@@H]1C` [compound 474, 5-cyclopropyl-N-((2S,4S)-1-((2-(isobutylamino)pyridin-3-yl)sulfonyl)-2-methylpiperidin-4-yl)isoxazole-3-carboxamide], 2.74 µM.
`NCCNc1ncccc1S(=O)(=O)N1C2CCCC1CC(NC(=O)c1cc(C3CC3)on1)C2` (centres unmarked) [compound 476, N-(9-((2-((2-aminoethyl)amino)pyridin-3-yl)sulfonyl)-9-azabicyclo[3.3.1]nonan-3-yl)-5-cyclopropylisoxazole-3-carboxamide]: the IC50 was 1.31 µM.
As for `N[C@H]1CC[C@@H](C(=O)N2[C@@H]3CC[C@H]2C[C@H](NC(=O)c2cc(C4CC4)on2)C3)CC1` [compound 486, N-((1R,3S,5S)-8-((1s,4S)-4-aminocyclohexane-1-carbonyl)-8-azabicyclo[3.2.1]octan-3-yl)-5-cyclopropylisoxazole-3-carboxamide], the IC50 was above 10 µM.
